Earlier results as cited in patent US20170080013A1, “METHODS AND COMPOSITIONS FOR DERMATOLOGICAL USE COMPRSING HYDROCORTISONE ACETATE AND BIOPOLYMERS” (APEX LABORATORIES PRIVATE LIMITED, priority 2015, published 2017).

Solubility in alcohol (alcohol): slightly soluble
Solubility in chloroform (chloroform): slightly soluble
Solubility in water (water): insoluble
Compound: CC(=O)OCC(=O)[C@@]1(O)CC[C@H]2[C@@H]3CCC4=CC(=O)CC[C@]4(C)[C@H]3[C@@H](O)C[C@@]21C [Hydrocortisone acetate, 11β, 17-dihydroxy-3, 20-dioxopregn-4-en-21-yl acetate]
